Patent US9234000B2, “Benzylamine derivatives as inhibitors of plasma kallikrein” (KalVista Pharmaceuticals Limited, priority 2011, dated 2016)
Values after ≈ are worked out from the molar mass of the structure shown. Read-outs that look alike come from different tables or passages of the source.

Tests used:
Human plasma kallikrein = Human plasma kallikrein (Homo sapiens (Human), UniProt P03952); assay: Determination of the IC50 for plasma kallikrein; format: biochemical; details: 37° C., read-out: IC50 (human PKal)
How it was run: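 Human plasma kallikrein incubated at 37° C with fluorogenic substrate H-DPro-Phe-Arg-AFC and varying compound concentrations. Initial reaction rate followed by absorbance change at 410 nm to give residual activity and IC50.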

thrombin = thrombin (Homo sapiens (Human), UniProt P00734); assay: Determination of enzyme selectivity: thrombin; format: biochemical; details: substrate at Km
Description: (§1) Determination of Enzyme Selectivity

[1] = Ocular and systemic pharmacokinetics following a single IVT dose; format: in vivo, pigmented (Dutch-belted) rabbits; details: rabbit
Description: A pharmacokinetic study of Example 3 was performed to assess the ocular and systemic pharmacokinetics following a single IVT dose in pigmented (Dutch-belted) rabbits. […] Serial blood samples were collected in surviving rabbits.
Ocular tissue concentration data are presented in FIG. 2, in which the solid line for each ocular tissue concentration is the average of the left and right eye of each rabbit.

plasmin = plasmin (Homo sapiens (Human), UniProt P00747); assay: Determination of enzyme selectivity: plasmin; format: biochemical; details: substrate at Km
Description: as §1

Human KLK1 = Human KLK1 (Homo sapiens (Human), UniProt P06870); assay: Determination of the IC50 for KLK1; format: biochemical; details: Human KLK1, 37° C., substrate H-DVal-Leu-Arg-AFC
How it was run: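 Human KLK1 incubated at 37° C with fluorogenic substrate H-DVal-Leu-Arg-AFC and a range of test compound concentrations. Residual activity taken as initial reaction rate from absorbance change at 410 nm; IC50 derived from these rates.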

physchem = details: pH 7, aqueous buffer, kinetic from dmso stock
Description: Determination of the Kinetic Solubility in Phosphate Buffer
After shaking for approximately 30 seconds the reduction in light transmission of these samples, at 650 nm, was measured (Molecular Devices Spectromax UV/visible spectrophotometer). A second measurement was taken at approximately 30 seconds later.

Factor XIIa = Factor XIIa (Homo sapiens (Human), UniProt P00748); assay: Determination of enzyme selectivity: Factor XIIa; format: biochemical; details: fluorogenic substrate at Km concentration
Description: as §1
Human serine protease enzymes plasmin, thrombin, trypsin, Factor Xa and Factor XIIa were assayed for enzymatic activity using an appropriate fluorogenic substrate. Protease activity was measured by monitoring the accumulation of liberated fluorescence from the substrate over 5 minutes. The linear rate of fluorescence increase per minute was expressed as percentage (%) activity. The Km for the cleavage of each substrate was determined by standard transformation of the Michaelis-Menten equation.

Factor Xa = Factor Xa (Homo sapiens (Human), UniProt P00742); assay: Determination of enzyme selectivity: Factor Xa; format: biochemical; details: substrate at Km
Description: as §1

CA-I stimulated RVP = assay: Carbonic anhydrase I induced retinal vascular permeability model; format: in vivo, Sprague Dawley rats; details: rat
Description: Carbonic Anhydrase I Induced Retinal Vascular Permeability Model
After 30 mins, a second intravitreal injection (5 μL) of PBS or CA-I (200 ng/eye) was given. After 15 minutes, 10% sodium fluorescein was infused and retinal vascular permeability (RVP) was measured by vitreous fluorophotometry 75 minutes following the initial IVT injections.

[2] = Determination of thermodynamic solubility in phosphate buffer; format: physicochemical; details: pH 7.4, aqueous buffer, thermodynamic from solid, ammonium phosphate buffer pH7.4, 290 mOsm, 37° C., nominal 1 mg/mL, read-out: Solubility in PO4 buffer
How it was run: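 Compound at nominal 1 mg/mL in ammonium phosphate buffer (pH7.4, 290 mOsm), shaken 1 h at 37° C., then centrifuged 15,000 g for 10 minutes at 37° C. Supernatant concentration measured by LC-MS/MS against a calibration line from a DMSO stock.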

Sequence of Human KLK1 (P06870 25-262): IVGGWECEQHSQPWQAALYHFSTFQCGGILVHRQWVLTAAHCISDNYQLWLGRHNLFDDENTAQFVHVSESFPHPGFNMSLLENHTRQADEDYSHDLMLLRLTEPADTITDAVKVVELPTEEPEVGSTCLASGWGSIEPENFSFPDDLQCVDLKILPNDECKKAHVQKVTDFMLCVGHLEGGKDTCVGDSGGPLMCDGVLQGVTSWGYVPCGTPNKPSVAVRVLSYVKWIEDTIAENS
Sequence of Human plasma kallikrein (P03952 391-638): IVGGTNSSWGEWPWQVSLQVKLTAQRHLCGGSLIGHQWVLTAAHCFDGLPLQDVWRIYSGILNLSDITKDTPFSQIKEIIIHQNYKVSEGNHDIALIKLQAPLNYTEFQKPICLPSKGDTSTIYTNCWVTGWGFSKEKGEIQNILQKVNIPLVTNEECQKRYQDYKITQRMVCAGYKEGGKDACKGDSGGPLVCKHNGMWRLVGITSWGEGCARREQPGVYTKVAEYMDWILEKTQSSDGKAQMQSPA
Sequence of Human plasma kallikrein (P03952 20-390 partner): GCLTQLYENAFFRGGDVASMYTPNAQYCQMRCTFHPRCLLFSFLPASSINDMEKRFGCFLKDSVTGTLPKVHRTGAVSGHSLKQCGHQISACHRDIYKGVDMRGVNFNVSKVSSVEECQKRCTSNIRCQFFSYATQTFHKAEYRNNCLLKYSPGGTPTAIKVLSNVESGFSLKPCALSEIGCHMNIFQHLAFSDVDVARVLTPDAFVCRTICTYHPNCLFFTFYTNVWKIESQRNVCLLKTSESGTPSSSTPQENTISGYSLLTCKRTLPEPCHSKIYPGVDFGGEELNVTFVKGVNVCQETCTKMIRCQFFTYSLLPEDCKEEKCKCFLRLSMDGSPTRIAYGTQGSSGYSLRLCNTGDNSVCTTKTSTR
Sequence of Factor XIIa (P00748 373-615): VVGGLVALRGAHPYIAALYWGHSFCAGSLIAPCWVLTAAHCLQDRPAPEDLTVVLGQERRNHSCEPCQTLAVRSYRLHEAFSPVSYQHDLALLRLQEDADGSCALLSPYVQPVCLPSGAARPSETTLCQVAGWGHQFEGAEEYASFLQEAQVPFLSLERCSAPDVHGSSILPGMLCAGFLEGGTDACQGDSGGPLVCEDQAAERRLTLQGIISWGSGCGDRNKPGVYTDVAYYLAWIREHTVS
Sequence of Factor Xa (P00742 235-488): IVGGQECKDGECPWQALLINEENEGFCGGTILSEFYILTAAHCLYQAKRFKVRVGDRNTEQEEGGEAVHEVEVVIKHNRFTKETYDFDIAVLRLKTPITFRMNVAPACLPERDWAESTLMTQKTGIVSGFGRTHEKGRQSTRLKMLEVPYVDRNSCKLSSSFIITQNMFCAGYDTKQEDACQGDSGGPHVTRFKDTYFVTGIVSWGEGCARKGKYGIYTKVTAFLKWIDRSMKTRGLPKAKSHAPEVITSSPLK
Sequence of Factor Xa (P00742 41-179 partner): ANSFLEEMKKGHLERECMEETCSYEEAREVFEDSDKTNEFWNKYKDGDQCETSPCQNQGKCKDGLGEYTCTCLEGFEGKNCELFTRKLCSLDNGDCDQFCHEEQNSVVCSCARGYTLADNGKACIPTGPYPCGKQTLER
Sequence of plasmin (P00747 whole entry, looked up, change not shown): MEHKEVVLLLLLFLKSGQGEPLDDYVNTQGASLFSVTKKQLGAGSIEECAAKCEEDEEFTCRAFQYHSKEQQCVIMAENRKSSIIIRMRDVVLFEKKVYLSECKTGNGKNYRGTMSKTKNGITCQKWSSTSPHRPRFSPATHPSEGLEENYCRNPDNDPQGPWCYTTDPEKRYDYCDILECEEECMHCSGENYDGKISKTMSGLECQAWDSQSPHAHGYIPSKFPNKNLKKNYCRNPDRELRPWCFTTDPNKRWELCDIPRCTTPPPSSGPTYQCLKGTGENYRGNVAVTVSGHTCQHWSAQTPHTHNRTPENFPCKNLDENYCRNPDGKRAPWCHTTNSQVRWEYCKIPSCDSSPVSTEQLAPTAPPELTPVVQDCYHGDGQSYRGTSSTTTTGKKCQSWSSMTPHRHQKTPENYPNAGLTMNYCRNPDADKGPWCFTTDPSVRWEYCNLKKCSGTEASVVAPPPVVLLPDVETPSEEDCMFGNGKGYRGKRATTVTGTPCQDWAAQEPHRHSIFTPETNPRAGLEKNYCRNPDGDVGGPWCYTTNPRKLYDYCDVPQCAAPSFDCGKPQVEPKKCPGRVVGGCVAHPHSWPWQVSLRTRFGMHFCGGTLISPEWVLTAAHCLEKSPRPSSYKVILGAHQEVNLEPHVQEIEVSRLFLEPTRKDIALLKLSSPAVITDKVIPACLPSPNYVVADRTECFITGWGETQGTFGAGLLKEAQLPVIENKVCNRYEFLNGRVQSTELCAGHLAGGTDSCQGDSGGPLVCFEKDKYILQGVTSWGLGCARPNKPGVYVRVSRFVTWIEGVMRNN
Sequence of plasmin (P00747 whole entry partner, looked up): as the sequence (P00747 whole entry, looked up, change not shown) above

| IC50 (Factor XIIa) [µM] | IC50 (Human plasma kallikrein; substrate H-DPro-Phe-Arg-AFC) [µM] | IC50 (Human KLK1; Table 13) [µM] | SMILES | further results |
| --- | --- | --- | --- | --- |
| > 10 | 0.175 | > 10 | CCOc1ccc(C[C@@H](NC(=O)c2ccc(Cl)c(Cl)c2)C(=O)N[C@@H](Cc2ccccc2)C(=O)NCc2ccc(CN)cc2)cc1 [Example 93, N-[(R)-1-[(S)-1-(4-Aminomethyl-benzylcarbamoyl)-2-phenyl-ethylcarbamoyl]-2-(4-ethoxy-phenyl)-ethyl]-3,4-dichloro-benzamide] | solubility at 1 h [2]: 0.01 µg/mL (≈ 0.0154 µM) |
| > 10 | 0.036 | > 10 | CCOc1ccc(C[C@@H](NC(=O)c2ccccn2)C(=O)N[C@@H](Cc2cccs2)C(=O)NCc2ccc(CN)cc2)cc1 [Example 157, Pyridine-2-carboxylic acid [(R)-1-[(S)-1-(4-aminomethyl-benzylcarbamoyl)-2-thiophen-2-yl-ethylcarbamoyl]-2-(4-ethoxy-phenyl)-ethyl]-amide] | solubility at 1 h [2]: 4.77 µg/mL (≈ 8.14 µM) |
| > 10 | 0.036 | > 10 | CCOc1ccc(C[C@@H](NC(=O)c2sccc2NC(C)=O)C(=O)N[C@@H](Cc2csc3ccccc23)C(=O)NCc2ccc(CN)cc2)cc1 [Example 188, 3-Acetylamino-thiophene-2-carboxylic acid [(R)-1-[(S)-1-(4-aminomethyl-benzylcarbamoyl)-2-benzo[b]thiophen-3-yl-ethylcarbamoyl]-2-(4-ethoxy-phenyl)-ethyl]-amide] | – |
| > 10 | 0.023 | > 10 | CCOc1ccc(C[C@@H](NC(=O)c2cccc(C)c2)C(=O)N[C@@H](Cc2cccnc2)C(=O)NCc2ccc(CN)cc2)cc1 [Example 189, N-[(R)-1-[(S)-1-(4-Aminomethyl-benzylcarbamoyl)-2-pyridin-3-yl-ethylcarbamoyl]-2-(4-ethoxy-phenyl)-ethyl]-3-methyl-benzamide] | – |
| > 10 | 0.028 | > 10 | CCOc1ccc(C[C@@H](NC(=O)c2ccccc2C)C(=O)N[C@@H](Cc2cccnc2)C(=O)NCc2ccc(CN)cc2)cc1 [Example 190, N-[(R)-1-[(S)-1-(4-Aminomethyl-benzylcarbamoyl)-2-pyridin-3-yl-ethylcarbamoyl]-2-(4-ethoxy-phenyl)-ethyl]-2-methyl-benzamide] | – |
| > 10 | 0.02 | > 10 | CCOc1ccc(C[C@@H](NC(=O)c2[nH]c(C)cc2C)C(=O)N[C@@H](Cc2ccccc2)C(=O)NCc2ccc(CN)cc2)cc1 [Example 191, 3,5-Dimethyl-1H-pyrrole-2-carboxylic acid [(R)-1-[(S)-1-(4-aminomethyl-benzylcarbamoyl)-2-phenyl-ethylcarbamoyl]-2-(4-ethoxy-phenyl)-ethyl]-amide] | – |
| > 10 | 0.012 | > 10 | CCOc1ccc(C[C@@H](NC(=O)c2ccccc2)C(=O)N[C@@H](Cc2cccnc2)C(=O)NCc2ccc(CN)c(C)c2)cc1 [Example 192, N-[(R)-1-[(S)-1-(4-Aminomethyl-3-methyl-benzylcarbamoyl)-2-pyridin-3-yl-ethylcarbamoyl]-2-(4-ethoxy-phenyl)-ethyl]-benzamide] | – |
| > 10 | 0.025 | > 10 | CCOc1ccc(C[C@@H](NC(=O)c2sccc2NC(C)=O)C(=O)N[C@@H](Cc2ccsc2)C(=O)NCc2ccc(CN)cc2)cc1 [Example 193, 3-Acetylamino-thiophene-2-carboxylic acid [(R)-1-[(S)-1-(4-aminomethyl-benzylcarbamoyl)-2-thiophen-3-yl-ethylcarbamoyl]-2-(4-ethoxy-phenyl)-ethyl]-amide] | – |
| > 10 | 0.013 | 7.1 | CCOc1ccc(C[C@@H](NC(=O)c2sccc2N)C(=O)N[C@@H](Cc2csc3ccccc23)C(=O)NCc2ccc(CN)cc2)cc1 [Example 194, 3-Amino-thiophene-2-carboxylic acid [(R)-1-[(S)-1-(4-aminomethyl-benzylcarbamoyl)-2-benzo[b]thiophen-3-yl-ethylcarbamoyl]-2-(4-ethoxy-phenyl)-ethyl]-amide] | – |
| > 10 | 0.014 | > 10 | CCOc1ccc(C[C@@H](NC(=O)c2sccc2NC(C)=O)C(=O)N[C@@H](Cc2csc3ccccc23)C(=O)NCc2ccc(CN)cc2)cc1 [Example 195, 3-Acetylamino-thiophene-2-carboxylic acid [(R)-1-[(S)-1-(4-aminomethyl-benzylcarbamoyl)-2-benzo[b]thiophen-3-yl-ethylcarbamoyl]-2-(4-ethoxy-phenyl)-ethyl]-amide] | – |
| > 10 | 0.032 | 9.9 | CCOc1ccc(C[C@@H](NC(=O)c2sccc2Cl)C(=O)N(C)[C@@H](Cc2ccccc2)C(=O)NCc2ccc(CN)cc2)cc1 [Example 196, 3-Chloro-thiophene-2-carboxylic acid [(R)-1-{[(S)-1-(4-aminomethyl-benzylcarbamoyl)-2-phenyl-ethyl]-methyl-carbamoyl}-2-(4-ethoxy-phenyl)-ethyl]-amide] | – |
| > 10 | 0.012 | > 10 | CCOc1ccc(C[C@@H](NC(=O)c2ccccc2)C(=O)N[C@H](C(=O)NCc2ccc(CN)cc2)[C@H](O)c2ccccc2)cc1 [Example 197, N-[(R)-1-[(1S,2R)-1-(4-Aminomethyl-benzylcarbamoyl)-2-hydroxy-2-phenyl-ethylcarbamoyl]-2-(4-ethoxy-phenyl)-ethyl]-benzamide] | – |
| > 10 | 0.007 | 9.1 | CCOc1ccc(C[C@@H](NC(=O)c2sccc2Cl)C(=O)N[C@H](C(=O)NCc2ccc(CN)cc2)[C@H](O)c2ccccc2)cc1 [Example 198, 3-Chloro-thiophene-2-carboxylic acid [(R)-1-[(1S,2R)-1-(4-aminomethyl-benzylcarbamoyl)-2-hydroxy-2-phenyl-ethylcarbamoyl]-2-(4-ethoxy-phenyl)-ethyl]-amide] | – |
| > 10 | 0.01 | > 10 | CCOc1ccc(C[C@@H](NC(=O)c2ccc(C)cc2)C(=O)N[C@@H](Cc2cccnc2)C(=O)NCc2ccc(CN)cc2)cc1 [Example 199, N—[(R)-1-[(S)-1-(4-Aminomethyl-benzylcarbamoyl)-2-pyridin-3-yl-ethylcarbamoyl]-2-(4-ethoxy-phenyl)-ethyl]-4-methyl-benzamide] | solubility at 1 h [2]: 15.9 µg/mL (≈ 26.7 µM) |
| > 10 | 0.012 | > 10 | NCc1ccc(CNC(=O)[C@H](Cc2ccccc2)NC(=O)C(Cc2ccc(OCC(F)(F)F)cc2)NC(=O)c2ccccc2)cc1 (stereo partly drawn) [Example 201, N-{(R,S)-1-[(S)-1-(4-Aminomethyl-benzylcarbamoyl)-2-phenyl-ethylcarbamoyl]-2-[4-(2,2,2-trifluoro-ethoxy)-phenyl]-ethyl}-benzamide] | – |

| SMILES | IC50 (Factor XIIa) [µM] | IC50 (Human plasma kallikrein; substrate H-DPro-Phe-Arg-AFC) [µM] | IC50 (Human KLK1; Table 13) [µM] | further results |
| --- | --- | --- | --- | --- |
| CCOc1ccc(C[C@@H](NC(=O)c2ccccc2)C(=O)N[C@@H](Cc2ccccc2)C(=O)NCc2ccc(CN)cc2)cc1 [Example 3, N—[(R)-1-[(S)-1-(4-Aminomethyl-benzylcarbamoyl)-2-phenyl-ethylcarbamoyl]-2-(4-ethoxy-phenyl)-ethyl]-benzamide] | > 10 | – | – | IC50 (Human plasma kallikrein; fluorogenic substrate H-DPro-Phe-Arg-AFC): 0.022 µM; IC50 (thrombin): > 40 µM; decline in ocular tissue concentrations ([1]; IVT 210 ng per eye, vitreous, retina/choroid, aqueous humour, over 7 days): minimal; Plasma concentrations following IVT administration ([1]; single bilateral IVT 210 ng per eye, all time points): below 1 ng/mL; IC50 (plasmin): 3.5 µM; IC50 (Human KLK1; Table 12): > 10 µM; solubility (physchem): 12 µM (≈ 6.94 µg/mL); IC50 (Factor Xa): > 10 µM; reduction of RVP stimulated by CA-I injection (CA-I stimulated RVP; intravitreal injection 1 μM (5 μL), CA-I 200 ng/eye, RVP measured at 75 minutes): 53±21%; basal RVP (CA-I stimulated RVP; intravitreal injection of 1 μM alone (no CA-I), PBS alone 3.64±0.48, no effect): 3.29±0.21; solubility at 1 h [2]: 10 µg/mL (≈ 17.3 µM) |
